This experiment addresses T1, FACI53 (Bos taurus, UniProt P07107, A54C).
T1 construct: badan (6-bromoacetyl-2-dimethylaminonaphthalene) fluorophore on the introduced Cys-53; made in house; host or cells: E. coli BL21(DE3)pLysS, pET3a vector
T1 sequence (P07107 2-87 A54C): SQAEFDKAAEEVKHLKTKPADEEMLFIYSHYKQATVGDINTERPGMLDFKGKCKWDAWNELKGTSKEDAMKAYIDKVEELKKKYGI
The experiment is described as follows: Isoelectrical focusing of acyl-CoA binding to FACI53. Also on record: species or system bovine. Particulars: ligand in four-fold molar excess over protein. The procedure:
All the gels were prepared with ligands (1-7) in four-fold molar excess over protein. […] The protein-ligand complex shifted to a pl around 3.8. Legend: 1: Water, 2: CoA-SH, 3: C4-CoA, 4: C8-CoA, 5: C12-CoA, 6: C16-CoA, 7: C20-CoA, 8: Broad pl Calibration Kit (pH 3-10).
Quantitative determination of binding affinities (KD) were performed by isothermal titration micro calorimetry as previously described (Faergeman et. al., 1996; Biochemistry 35, 14118-14126). Qualitative evaluation of relative binding affinities were determined by isoelectrical focusing using the Pharmacia Fast Gel system according to the prescriptions given by the manufacture. Fluorescence emission changes induced by acyl-CoA binding to badan modified protein were determined as follows: 5 μl portions of acyl-CoAs were added from stock solutions disolved in binding buffer, (10 mM Hepes, 150 mM NaCL, 1 mM NaHPO4, pH 7.4) containing 3.4 μM Badan derivatized protein to a 1 ml 3.4 μM solution of the Badan derivatized ACBP in the same buffer. The fluorescence emission was measured on a SPEX FLOUROLOG (Industries Inc, Edison N.J., USA) with excitation at 400 nm and emission scan from 400 nm to 550 nm. […]

For `CCCCCCCCCCCCCCCC(=O)SCCNC(=O)CCNC(=O)[C@H](O)C(C)(C)COP(=O)(O)OP(=O)(O)OC[C@H]1O[C@@H](n2cnc3c(N)ncnc32)[C@H](O)[C@@H]1OP(=O)(O)O` [C16:0-CoA, palmitoyl-CoA], the “Binding to FACI53 by isoelectrical focusing” value was “shown to bind”.

The record behind these values is US20020142347A1, “Biosensor” (BIOSENSOR ApS, priority 2000, published 2002).
